Our source for the IC50 and viability, T/C values is PubChem BioAssay AID1845201 (Molecular Pharmacology Branch, DTP, NCI, 2023).

“And” between values parts separate entries of the source, which are not always exact repeats. Identical values can stand only once.

This test deals with COR L88 complex tumor spheroid viability. The test can be described thus: Anticancer human tumor COR L88 cell line growth inhibition.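 For all read-outs here: compound exposure lasted 7 days before viability readout.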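 For viability, T/C: percent of DMSO vehicle-treated spheroids = 100%.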 The conditions noted are these: for viability, T/C: stronger effect = lower value. From the text:
Multicellular complex tumor spheroid response to DNA repair inhibitors in combination with DNA-damaging drugs
This study explores the anticancer activities of DNA-damaging drugs and inhibitors of DNA damage repair, both as single agents and in combinations. Complex tumor spheroids comprised of malignant cells, endothelial cells and mesenchymal stem cells served as an in vitro model for human solid tumors. This model system incorporates physiologically relevant features and patient-derived or established malignant cell lines with clinically relevant genetic alterations from many tumor types. Twenty-six patient-derived or established malignant cell lines were evaluated representing sarcoma, melanoma, small cell lung cancer (SCLC), non-small cell lung cancer (NSCLC), as well as bladder, ovarian and pancreatic cancers. The concentration ranges selected for each drug and investigational agent were based upon clinically achievable concentrations if the clinical Cmax of the agent was known.
Compounds. The drugs and compounds olaparib (NSC753686), talazoparib (NSC767125), berzosertib (NSC777718), elimusertib (NSC800525), nedisertib (NSC802822), VX-984 (NSC792969), AZD-1390 (NSC803789), temozolomide (NSC362856), topotecan (NSC609699), trabectedin (NSC813783), staurosporine (NSC755774), and gemcitabine (NSC613327) were obtained from the National Cancer Institute (NCI) Developmental Therapeutics Program Chemical Repository. The FDA-approved anticancer drug set is available from the Developmental Therapeutics Program at https://dtp.cancer.gov/organization/dscb/obtaining/available_plates.htm. […] The stock solutions were prepared in dimethyl sulfoxide (DMSO, Sigma-Aldrich, St. Louis, MO, cat. D2650) at 400-fold the tested concentration and stored at -70 degrees C. Prior to their use, the stock solutions were diluted in fresh medium and the final DMSO concentration in the assay was 0.25% (v/v). All drugs and investigational agents were tested over a range starting from a high concentration at or near the clinical Cmax and decreasing in half-log increments. If the clinical Cmax for an agent had not been determined, the highest concentration tested was 10 microM.
Cell Lines. The patient-derived cancer cell (PDC) lines: 156681-154-R-J1-PDC, 283228-195-R-J1-PDC, 287954-098-R-J1-PDC, 292921-168-R-J2-PDC, 349418-098-R-PDC, 425362-245-T-J1-PDC, 556581-035-R-J1-PDC, and BL0293-F563-PDC were received from the NCI Patient-Derived Models Repository (PDMR, https://pdmr.cancer.gov). The established cell lines HS-SY-2 (RRID:CVCL_8719), MPNST, and SYO-1 (RRID:CVCL_7146) were obtained from the Sloan Kettering Institute. The alveolar soft parts sarcoma cell line ASPS-1 (RRID:CVCL_S738) was established at the NCI and grown from internal seed stocks. The following established cell lines were purchased from the American Type Culture Collection (ATCC, Manassas, VA): G-401 (ATCC, cat. CRL-1441, RRID:CVCL_0270), SW982 (ATCC, cat. HTB-93, RRID:CVCL_1734), VA-ES-BJ (ATCC, cat. CRL-2138, RRID:CVCL_1785), NCI-H719 (ATCC, cat. CRL-5837, RRID:CVCL_1582), NCI-H196 (ATCC, cat. CRL-5823, RRID:CVCL_1509), NCI-H841 (ATCC, cat. CRL-5845, RRID:CVCL_1595), NCI-H1618 (ATCC, cat. CRL-5879, RRID:CVCL_1480), NCI-H1876 (ATCC, cat. CRL-5902, RRID:CVCL_1503), DMS 114 (ATCC, cat. CRL-2066; RRID:CVCL_1174), NCI-H211 (ATCC, cat. CRL-5824; RRID:CVCL_1529), and SW 1271 (ATCC, cat. CRL-2177, RRID:CVCL_1716). The small cell lung cancer cell line COR-L88 was purchased from Sigma-Aldrich (cat. 92031917-1VL, RRID:CVCL_1141). The non-small cell lung cancer cell lines NCI-H226 (RRID:CVCL_1544) and NCI-H322M (RRID:CVCL_1557) were established at the NCI and grown from internal seed stocks. Pooled donor human umbilical vein endothelial cells (HUVEC, Lonza, cat. CC-2519) and human mesenchymal stem cells (hMSC, Lonza, cat. PT-2501) were purchased from Lonza (Walkersville, MD).
Cell Culture. All cells were maintained in an incubator at 37 degrees C and 5% CO2 with 95% humidity. […]

In general, IC50 refers to the point on the concentration scale where inhibition reaches its midpoint. As a reminder, the viability, T/C is the ratio of treated to control. As to `Cc1cc(C)c(CNC(=O)c2cc(-c3ccc(CN4CCOCC4)cc3)cc3c2cnn3C2CCCC2)c(=O)[nH]1` + CC[C@@]1(O)C(=O)OCc2c1cc1n(c2=O)Cc2cc3c(CN(C)C)c(O)ccc3nc2-1, the IC50 reads like this: (curve of first compound, second compound 0.003 µM) 8330 nM; (curve of first compound, second compound 0.00949 µM) over 10000 nM; (curve of first compound, second compound 0.03 µM) 252 nM; (curve of first compound, second compound 0.0949 µM) 44.1 nM; (curve of first compound, second compound 0.3 µM) under 31.6 nM. For the same molecule, the viability, T/C runs as follows: (second compound 0.003 µM, first compound 0.0316 µM) 87%; (second compound 0.003 µM, first compound 0.1 µM) 91.7%; (second compound 0.003 µM, first compound 0.316 µM) 90.4%; (second compound 0.003 µM, first compound 1 µM) 80.8%; (second compound 0.003 µM, first compound 3.16 µM) 73.1%; (second compound 0.003 µM, first compound 10 µM) 45.5%. For the same molecule, the viability, T/C (second compound 0.00949 µM, first compound 0.0316 µM) was 76.9%; the viability, T/C (second compound 0.00949 µM, first compound 0.1 µM) was 81.5%; the viability, T/C (second compound 0.00949 µM, first compound 0.316 µM) was 83.8%; the viability, T/C (second compound 0.00949 µM, first compound 1 µM) was 73%; the viability, T/C (second compound 0.00949 µM, first compound 3.16 µM) was 60.3%; the viability, T/C (second compound 0.00949 µM, first compound 10 µM) is 54.4%. The viability, T/C runs as follows: (second compound 0.03 µM, first compound 0.0316 µM) 52.4%; (second compound 0.03 µM, first compound 0.1 µM) 56.2%; (second compound 0.03 µM, first compound 0.316 µM) 47.1%; (second compound 0.03 µM, first compound 1 µM) 46.3%; (second compound 0.03 µM, first compound 3.16 µM) 43%; (second compound 0.03 µM, first compound 10 µM) 39.2%. In addition, the viability, T/C (second compound 0.0949 µM, first compound 0.0316 µM) is 51.7%; the viability, T/C (second compound 0.0949 µM, first compound 0.1 µM) is 48.2%; the viability, T/C (second compound 0.0949 µM, first compound 0.316 µM) is 45.1%; the viability, T/C (second compound 0.0949 µM, first compound 1 µM) is 45.9%; the viability, T/C (second compound 0.0949 µM, first compound 3.16 µM) was 40.5%; the viability, T/C (second compound 0.0949 µM, first compound 10 µM) was 41.7%. For the same molecule, the viability, T/C runs as follows: (second compound 0.3 µM, first compound 0.0316 µM) 40.5%; (second compound 0.3 µM, first compound 0.1 µM) 38.4%; (second compound 0.3 µM, first compound 0.316 µM) 39%; (second compound 0.3 µM, first compound 1 µM) 38.1%; (second compound 0.3 µM, first compound 3.16 µM) 35.8%; (second compound 0.3 µM, first compound 10 µM) 30.4%.

Turning to `CC(C)n1c(=O)n(C)c2cnc3cc(F)c(-c4ccc(OCCCN5CCCCC5)nc4)cc3c21`, the viability, T/C reads like this: (compound 0.0316 µM) 103% and 92.5% and 102%; (compound 0.1 µM) 113% and 103% (2×); (compound 0.316 µM) 110% and 99.5% and 98.2%; (compound 1 µM) 94.8% and 88.6% and 99%; (compound 3.16 µM) 95.3% and 89.8% and 87.5%; (compound 10 µM) 56.5% and 61% and 56.6%. For the same molecule, the IC50 (curve of compound) is over 10000 nM.

As for `Cc1sc2c(c1C)C(c1ccc(Cl)cc1)=NC(CC(=O)Nc1ccc(O)cc1)c1nnc(C)n1-2` (centres undefined), the viability, T/C is 93.4% and 99.2% and 89.1% (compound 0.00949 µM); 94.7% and 94.8% and 84.9% (compound 0.03 µM); 103% and 94.4% and 85.7% (compound 0.0949 µM); 63.8% and 67.1% and 47.9% (compound 0.3 µM); 37.4% and 33.8% and 21.4% (compound 0.949 µM); 20.6% and 19.2% and 17.3% (compound 3 µM). The IC50 (curve of compound) is 534 nM and 543 nM and 283 nM.
